From US10993939B2, “Compositions for treating or preventing vasomotor symptoms” (Mitsubishi Tanabe Pharma Corporation, priority 2016, dated 2021)

Legend:
[1] = tested on: female subjects experiencing Vasomotor Symptoms (VMS); assay: Phase Ib study: frequency of vasomotor symptoms (VMS); type: in vivo, human; parameters: key to Mean observed value in VMS frequency (moderate and severe VMS): moderate + severe VMS events per day
Text: (§1) Study Design: This was a Phase Ib, randomized, double blind, placebo controlled study. The study design is illustrated in FIG. 2. Following the initial Screening visit, eligible subjects was given an actigraphy event monitor (watch) to record episodes of flashing as Vasomotor symptoms (VMS) events during a period of 2 weeks during Screening, in order to confirm VMS eligibility criteria (>7 VMS/day on average during 2 weeks). Subjects may be required to return to the site during the Screening period to read or exchange the actigraphy event monitor. Subjects deemed eligible following review of VMS data were invited to attend the Clinical research unit (CRU) for one residential period of 16 days duration, including 14 days of Investigational Medicinal Product (IMP) administration. Subjects were admitted to the CRU 1 day prior to dosing (Day −1). No medication was administered on Day −1. On Day 1, subjects who meet the study eligibility criteria were randomized to receive one dose level of either Compound A (6 subjects) or a matching placebo (2 subjects) in a double-blind manner. Randomized treatment was administered once nightly, starting on Day 1, for a total duration of 14 days.
Fifty (50) mg of Compound A was administered to the female subjects experiencing Vasomotor Symptoms (VMS), and as the above-mentioned assessments, a Frequency of VMS and a Core body temperature assessment were examined.
Here a moderate VMS and a severe VMS were counted as a VMS frequency.

naive SD rats = assay: Evaluation of TRPM8 antagonist on core body (rectal) temperature in rats; type: in vivo
Procedure: Methods: Compound A (0.3 and 3 mg/kg) or vehicle was orally administered to naive SD rats (n=6). Rectal temperature was measured before, 1, 2, 3 and 6 hours after administration. AUC for 0 to 6 hours was calculated and statistically analyzed.

[2] = tested on: female subjects experiencing Vasomotor Symptoms (VMS); assay: Phase Ib study: core body temperature assessment; type: in vivo, human; conditions: 50 mg; within 24 hours post-dose on Visit Day 1, 7, 10 or 14, FIG. 4
Text: as §1, with “days. […]” for “days.”

## O=C(O)c1ccc(S(=O)(=O)N(Cc2ccc(OC(F)(F)F)cc2)c2ncc3ccccc3c2C2CC2)cc1 [Compound A, 4-({(4-cyclopropylisoquinolin-3-yl)[4-(trifluoromethoxy)benzyl]amino}sulfonyl)benzoic acid]
[1]; 50 mg once nightly, 14 days, FIG. 3
  Effect on frequency of VMS versus placebo: reduced the frequency of VMS significantly
[1]; 50 mg once nightly, FIG. 3
  Onset of the reduction effect of VMS frequency: the reduction effect of VMS frequency was shown at Day 2 or later
[1]; Baseline (before dosing), 50 mg group
  Mean observed value in VMS frequency (moderate and severe VMS): 11.2
[1]; Day 1, 50 mg once nightly
  Mean observed value in VMS frequency (moderate and severe VMS): 11.7
[1]; Day 2, 50 mg once nightly
  Mean observed value in VMS frequency (moderate and severe VMS): 6.0
[1]; Day 3, 50 mg once nightly
  Mean observed value in VMS frequency (moderate and severe VMS): 4.7
[1]; Day 4, 50 mg once nightly
  Mean observed value in VMS frequency (moderate and severe VMS): 4.7
[1]; Day 5, 50 mg once nightly
  Mean observed value in VMS frequency (moderate and severe VMS): 2.7
[1]; Day 6, 50 mg once nightly
  Mean observed value in VMS frequency (moderate and severe VMS): 2.8
[1]; Day 7, 50 mg once nightly
  Mean observed value in VMS frequency (moderate and severe VMS): 3.0
[1]; Day 8, 50 mg once nightly
  Mean observed value in VMS frequency (moderate and severe VMS): 3.3
[1]; Day 9, 50 mg once nightly
  Mean observed value in VMS frequency (moderate and severe VMS): 1.3
[1]; Day 10, 50 mg once nightly
  Mean observed value in VMS frequency (moderate and severe VMS): 3.2
[1]; Day 11, 50 mg once nightly
  Mean observed value in VMS frequency (moderate and severe VMS): 2.8
[1]; Day 12, 50 mg once nightly
  Mean observed value in VMS frequency (moderate and severe VMS): 2.7
[1]; Day 13, 50 mg once nightly
  Mean observed value in VMS frequency (moderate and severe VMS): 2.3
[1]; Day 14, 50 mg once nightly
  Mean observed value in VMS frequency (moderate and severe VMS): 2.3
Naive SD rats; 3 mg/kg orally, at 2 hours after administration, SD rats
  Maximum decrease in rectal temperature (amplitude): 0.82 °C
Naive SD rats; 0.3 and 3 mg/kg orally, naive SD rats, P<0.01 vs vehicle, FIG. 1
  Rectal temperature compared to vehicle (AUC for 0 to 6 hours): significantly reduced rectal temperature
[2]
  Change from baseline in core body temperature: reduced the core body temperature significantly
